The subject of this assay is CEM cells HIV-1 protection, formazan growth assay. In words: NCI AIDS Antiviral Assay. The note with it: for IC50: measured here: growth of uninfected CEM cells. In short, it runs like this:
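CEM (human) cells, HIV-1 infected vs uninfected, 5-point dosing, formazan growth read-out. Retest threshold 50% protection.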

Consider 72 compounds from PubChem BioAssay AID179 (DTP/NCI, 2004).

The source made the active and inactive calls.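 The calls were made as follows: active = compounds giving half or more protection of infected cells from virus-caused growth loss, again on retest; inactive = the rest.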

Turning to `N#C[C@@H](c1nc2ccccc2s1)c1ncccc1[N+](=O)[O-]`, the EC50 (commonly the concentration needed to bring the measured effect to its halfway point) was greater than 200 µM and the IC50 (commonly the concentration at which inhibition is half-maximal) was 20 µM.
For `COc1ccc(C[n+]2cccc(O)c2)cc1`, in that order: greater than 200 µM and 112 µM.
Regarding `CCOC(=O)C(Cc1ccccc1)P(=O)(OCC)OCC` (centres undefined), the EC50 is greater than 200 µM and the 50% inhibitory concentration (IC50) was 158 µM.
Consider `CC(C)=CC1CC(=O)C1(C)Sc1ccccc1` (centres undefined), for which the EC50 was greater than 40.7 µM and the IC50 is greater than 40.7 µM.
As for `O=C(NCc1ccccc1Cl)c1c(O)c2ccccc2[nH]c1=O`, the EC50 is greater than 200 µM and the IC50 is greater than 200 µM.
For `O=C(O)C(F)(F)C(F)(F)C(F)(F)C(F)(F)C(F)(F)C(F)(F)C(F)(F)C(F)(F)F`, the EC50 was greater than 200 µM and the IC50 amounted to 105 µM.
For `CN(C)CCC(/C=C/c1ccccc1)=N\Nc1c(F)c(F)c(F)c(F)c1F`, the result was inactive.
For the compound `Cc1cccc(N(C=O)c2c(O)nc(N)[nH]c2=O)c1`, the EC50 was greater than 200 µM and the IC50 is greater than 200 µM.
In the case of `Cc1cccc(C(C)(C)C)c1NC(=O)CC1C(=O)Nc2ccccc2S1(=O)=O` (centres undefined), the EC50 was greater than 1.86 µM and the 50% inhibitory concentration (IC50) is greater than 1.86 µM.
Take `CCCCN1C(=O)[C@@H]2[C@H](c3ccccc3O)C(c3ccccc3O)[C@@H]2C1=O` (some centres undefined): the EC50 was greater than 138 µM and the concentration for half-maximal inhibition (IC50) was found to be 30.2 µM.
For `Cc1nc2cc[nH]n2c(=O)c1CCc1ccccc1`, in that order: greater than 200 µM and 151 µM.
For the compound `Cc1cn2cc(-c3ccncc3)nc2s1`, the EC50 was greater than 209 µM and the IC50 came to 112 µM.
For the compound `O=c1cc(-c2ccccc2)oc2cc(OCCCOc3ccc4c(=O)cc(-c5ccccc5)oc4c3)ccc12`, the EC50 was greater than 3.89 µM and the IC50 was greater than 3.89 µM.
`COc1ccccc1C1c2cc3c(cc2OC2(OC)COC(=O)C12)OCO3` (centres undefined): the EC50 is greater than 200 µM and the IC50 turned out to be 10.2 µM.
On to `Brc1ccc(C2SCc3nc4ccccc4n32)cc1` (centres undefined), for which the result was inactive.
`c1ccc(-c2onc3c2CCCC3)cc1`: the result was inactive.
With `COC1C=CC23c4cc5c(cc4C(O)OC2CN(C)C3C1)OCO5` (centres undefined), the EC50 is greater than 200 µM and the IC50 worked out at 0.891 µM.
For `COC(=O)c1ccc(Nc2nc3nc[nH]c3c(=O)[nH]2)cc1`, in that order: greater than 200 µM and 42.7 µM.
As for `C=CCN(c1cc(OC)c(NC(C)=O)cc1[N+](=O)[O-])S(C)(=O)=O`, the EC50 is greater than 200 µM and the IC50 is greater than 200 µM.
As to `Cc1cc2c(cn1)C(=O)OCC2`, the outcome was inactive.
As for `O=C(Cc1nc2ccc(C(=O)c3ccccc3)cc2[nH]c1=O)C(=O)Nc1ccccc1[N+](=O)[O-]`, the EC50 was greater than 79.4 µM and the IC50 stood at 51.3 µM.
For `O=C(CC1(O)C(=O)Nc2c(Cl)cc(Cl)cc21)c1ccc(Br)cc1Br` (centres undefined), in that order: greater than 51.3 µM and 44.7 µM.
On to `CSc1nc2cc(Cl)ccc2c2c1C=NCCN2`, for which the EC50 is greater than 93.3 µM and the IC50 is 15.8 µM.
The corresponding values for `Cn1ncc2c(=O)[nH]cnc21` are greater than 316 µM and greater than 316 µM.
For `O=[N+]([O-])C(/C=C(\Cl)[N+](=O)[O-])=C(N1CCCCC1)N1CCCCC1`, in that order: greater than 200 µM and 75.9 µM.
The corresponding values for `COc1ccc(C2S/C(=C\c3cccc([N+](=O)[O-])c3)C(=O)N2NC(=O)Cc2ccccc2)cc1` (centres undefined) are greater than 39.8 µM and greater than 39.8 µM.
Consider `COC(=O)Cc1nn2c(nc1=O)sc1ccc3ccccc3c12`, for which the EC50 is greater than 69.2 µM and the IC50 was greater than 69.2 µM.
On to `O=C(c1c(F)c(F)c(F)c(F)c1F)n1c(=S)n(C(=O)c2c(F)c(F)c(F)c(F)c2F)c2ccccc21`, for which the EC50 is greater than 100 µM and the half-inhibitory concentration (IC50) is 4.9 µM.
In the case of `Cc1ccc2oc(-c3nnc(N)s3)cc(=O)c2c1`, the EC50 is greater than 28.2 µM and the IC50 is greater than 28.2 µM.
For `CCOC(=O)C(CO)(CC(CO)(C(C)=O)C(=O)OCC)C(C)=O` (centres undefined), the EC50 is greater than 200 µM and the half-maximal inhibitory concentration (IC50) turned out to be 27.5 µM.
The corresponding values for `OC(CCN1CCOCC1)(c1cccc(Cl)c1)C1CCCCC1` (centres undefined) are greater than 200 µM and 41.7 µM.
The corresponding values for `COc1ccc(-c2cc(-c3cc(C)cc(Br)c3O)no2)cc1` are greater than 200 µM and greater than 200 µM.
Turning to `CC1OC2COC(C)OC2C(C2CN2)O1` (centres undefined), the EC50 is greater than 933 µM and the IC50 was determined as 589 µM.
Consider `O=c1c(O)cccc2cc(O)c(O)c(O)c12`, for which the EC50 is greater than 427 µM and the IC50 was 23.4 µM.
For `CCNC12CCC(C1)C(C)(C)C2=O` (centres undefined), in that order: greater than 200 µM and greater than 200 µM.
The corresponding values for `O=c1ccc(=O)n(CCc2ccccn2)[nH]1` are greater than 200 µM and greater than 200 µM.
Take `COc1ccc(C2NCCc3c2[nH]c2ccccc32)cc1` (centres undefined): the result was inactive.
In the case of `CCCCOC(=O)NC(Nc1ccc(S(N)(=O)=O)cc1)(C(F)(F)F)C(F)(F)F`, the EC50 is greater than 200 µM and the concentration for half-maximal inhibition (IC50) is greater than 200 µM.
For `O=S(=O)(Nc1ccccc1Cl)c1ccccc1`, the EC50 was greater than 200 µM and the IC50 was 83.2 µM.
As for `NC1=NS(=O)(=O)N=C(N)C1=NNc1cccc(Cl)c1`, the EC50 was greater than 832 µM and the IC50 is 138 µM.
Regarding `O=C(CCc1ccccc1)CC1OC(=O)C(Cl)=C1Cl` (centres undefined), the EC50 is greater than 33.1 µM and the IC50 was greater than 33.1 µM.
Consider `COC1=C(C)C2CC(=O)OC3CC4C(C)CC(O)C(=O)[C@]4(C)C(C1=O)[C@@]32C` (some centres undefined), for which the outcome was inactive.
In the case of `CC(C)C(OC(=O)c1cc(NC(=S)c2cccn2C)ccc1Cl)C(C)C`, the EC50 was 0.234 µM and the IC50 worked out at 18.2 µM.
The corresponding values for `CCOC1OC(COC(=O)C(C)(C)C)C(O)CC1n1cc(C)c(=O)[nH]c1=O` (centres undefined) are greater than 200 µM and greater than 200 µM.
On to `O=S(=O)(O)c1ccc(N/N=C/c2ccccc2)cc1`, for which the EC50 was greater than 832 µM and the IC50 was found to be 794 µM.
Take `CC1(C)CC2(C)CC1CC2NC(=O)CCN1CCOCC1` (centres undefined): the EC50 is greater than 851 µM and the IC50 is 676 µM.
For `O=C(N/C(=C\c1ccccc1Cl)c1nc2ccccc2[nH]1)c1ccccc1`, the outcome was inactive.
Take `CC(=O)O[C@H]1CC[C@@]2(C)C(=CC[C@@H]3C2CC[C@@]2(C)C3CC[C@@H]2c2ncc(C)s2)C1` (some centres undefined): the EC50 was greater than 60.3 µM and the IC50 was greater than 60.3 µM.
Turning to `CCCCCCCCCCCCCCCCCCCCCCCCCCCCCC=C(c1cc(Cl)c(O)c(C(=O)O)c1)c1cc(Cl)c(O)c(C(=O)O)c1`, the concentration for a half-maximal effect (EC50) was 12.3 µM and the IC50 turned out to be 224 µM.
The corresponding values for `Nc1ncnc2c1ncn2C1C[C@H](O)[C@]2(CO)C[C@H]12` (some centres undefined) are greater than 50.1 µM and greater than 50.1 µM.
As to `C=C1C(=O)OC2/C=C(\C)CC(O)/C=C(\C)CC(OC(=O)/C(=C\C)COC(C)=O)C12` (centres undefined), the EC50 is greater than 115 µM and the IC50 was 0.407 µM.
The corresponding values for `COC(=O)C1=C(C)NC2=C(C(=O)c3ccccc32)C1c1cn(-c2ccccc2)nc1-c1ccccc1` (centres undefined) are greater than 200 µM and 8.71 µM.
For `CC(C)(C)[Si](C)(C)OCC1OC(n2ccc(=O)[nH]c2=O)C(O[Si](C)(C)C(C)(C)C)C1(O)C/C=N/O` (centres undefined), in that order: greater than 200 µM and 7.59 µM.
For `CCOC(=O)CC(=O)ON(C)C(=O)Cc1ccccc1`, in that order: greater than 251 µM and greater than 251 µM.
Take `c1ccc(N2CCN(c3ccccc3)C2)cc1`: the EC50 is greater than 200 µM and the IC50 was greater than 200 µM.
In the case of `CC(=O)Nc1cc2ccc(C)nc2c2nc(C)ccc12.CC(=O)Nc1cc2ccc(C)nc2c2nc(C)ccc12.O=C1OC(C(O)C[O-])C(O)=C1O.[Cu+]`, the EC50 is greater than 12.6 µM and the IC50 came out at 2.09 µM.
Regarding `COc1ccc(NC(=S)/C(=C(/[O-])c2ccc(C)cc2)[n+]2ccccc2)cc1`, the result was inactive.
For `NNC(=O)CCC(NS(=O)(=O)c1ccc(Cl)cc1)C(=O)NN` (centres undefined), the EC50 is greater than 200 µM and the IC50 turned out to be 145 µM.
For `O=c1n(-c2ccccc2)c(=O)n2n1C1CCC2CC1`, in that order: greater than 200 µM and greater than 200 µM.
The corresponding values for `O=C(Nc1ccc(CN2CCOCC2)cc1)c1ccc(C(=O)Nc2ccc(CN3CCOCC3)cc2)cc1` are greater than 200 µM and greater than 200 µM.
Regarding `O=S(=O)(O)c1cc(NC(=S)c2ccc3cccnc3c2O)ccc1/C=C/c1ccc(NC(=S)c2ccc3cccnc3c2O)cc1S(=O)(=O)O`, the EC50 was 13.8 µM and the IC50 was found to be 72.4 µM.
Regarding `COc1ccc(C2CC(c3c(O)ccc4ccccc34)=NN2C(C)=O)cc1OC` (centres undefined), the EC50 was greater than 200 µM and the IC50 worked out at 46.8 µM.
For `Cc1ccc(NC(=S)/C(=C(/[O-])c2ccc([N+](=O)[O-])cc2)[n+]2ccccc2)c(C)c1`, in that order: greater than 200 µM and greater than 200 µM.
Turning to `c1ccc2c(Nc3ncco3)cccc2c1`, the EC50 was greater than 200 µM and the half-maximal inhibitory concentration (IC50) is 162 µM.
Take `COc1ccc2c(c1)C(=O)C13CC(C(=O)N(C)C)C(OC(C)=O)(CCC21)C3` (centres undefined): the EC50 is greater than 95.5 µM and the IC50 was greater than 95.5 µM.
In the case of `Cc1cccc(NC(=O)C(=O)C(C(=O)c2ccccc2F)C2OC(=O)c3ccccc32)c1Cl` (centres undefined), the EC50 was greater than 204 µM and the IC50 came to 12 µM.
For `c1ccc(CSC(SCc2ccccc2)c2ccccc2)cc1`, in that order: greater than 200 µM and greater than 200 µM.
As to `OCC(O)C(O)C(O)c1nn(-c2ccccc2)c2nc3ccc(Cl)cc3nc12` (centres undefined), the EC50 was greater than 112 µM and the half-maximal inhibitory concentration (IC50) was greater than 112 µM.
Turning to `Cc1ccc(S(=O)(=O)OC2C3OC(C)(C)OC3OC2C(c2cc(O)c3c(c2O)C(=O)c2ccccc2C3=O)c2cc(O)c3c(c2O)C(=O)c2ccccc2C3=O)cc1` (centres undefined), the EC50 is greater than 200 µM and the IC50 was greater than 200 µM.
Regarding `COC(=O)CC1C(=O)OC23CCC1C2(C)CCC1C3CCC2CC(OC(C)=O)CCC21C` (centres undefined), the result was inactive.
Regarding `CCc1cccc(C(C)C)c1NC(=O)C(=O)C1C(=O)NC(=O)NC1=O`, the outcome was inactive.
As to `C=C(C)C(=O)OC1C/C(CO)=C\C(O)C/C(C)=C/C2OC(=O)C(=C)C21` (centres undefined), the EC50 is greater than 724 µM and the IC50 was determined as 12.3 µM.
